Assay results from patent US6391549B1, “Monitoring gene expression” (Ramont University Authority for Applied Research & …, priority 1999, dated 2002).

What was measured:
[1] = test system: E. coli K10 cultures (lacZ expression); assay: on-line amperometric monitoring of lacZ product β-galactosidase in intact bacteria after IPTG induction; type: cell-based
Description: Bacterial strains and growth. E. coli K-12 strain K10 (Hfr, tonA22, ompF626, relA1, pit10, spoT1, T2^R CGSC [Coli Genetic Stot Center, New Haven, Conn.] 4234) was from the lab collection, Strains E. coli RO151 (MC4100 φ(csi-5::lacZ) and E. coli RH99 (RO151 rpoS359::Tn10) were described before (Weichart et. al., 1993). All cultures were grown aerobically at 37° C. with vigorous shaking in LB media (Miler, 1992), supplemented, when required, with 5 μg/ml of tetracycline or 25 μg/ml of kanamycin.
An on-line electroanalytical assay for β-galactosidase was used where the enzymatic activity was determined following induction with IPTG. Increasing concentrations of the inducer were added to cultures of E. coli K10 (Annette & Anthony, 1987) and the current signal was monitored on-line in all the cultures simultaneously (FIG. 3A).

[2] = test system: E. coil k-12 7118 carrying pUC-PhoA plasmid (lacZ promoter-phoA); assay: on-line amperometric monitoring of phoA product alkaline phosphatase under lacZ promoter in intact bacteria; type: cell-based, E. coli; conditions: IPTG 0, 0.1 mM and 1 mM, FIG. 10
From the text: The expression of the enzyme AP was done by constructing a multicopy plasmid. For the construction of the plasmid, we coupled a promoter-less phoA gene to the promoter of the lacZ gene. The use of multicopy plasmid as a vector for induciable genes requires a strong repressing system to prevent constitutive expression. Therefore we used a plasmid that cares the lacI^q gene coding for a lacZ strong repressor. The plasmid was designed to generate the correct fusion between the lacZ promoter and the phoA gene. The bacteria carrying this plasmid can be immobilized and used to monitor AP by electrochemical measurements of it's activity. After the construction of the plasmid, we measured AP activity of a cell suspension in response to the appearance of IPTG.
Strain E. coil k-12 7118[F′ lacI^qΔ(lacZ)M15 proA+B+/Δ(lac-proAB) thi supE]was used for all cloning procedures, plasmid propagation and production. AP production of cells carrying the pUC-PhoA plasmid was measured on-line by the electroanalytical technique that was used for β-galactosidase as described in example 2. As shown in FIG. 10 the enzymatic activity was determined following induction with elevated concentrations of IPTG (0, 1 mM and 0.1 mM).

[3] = test system: heavy metal responsive promoter-lacZ fusion in E coli K12 MC4100; assay: on-line monitoring of cadmium in soil samples with the reporter bacteria; type: cell-based
Description: (§1) The on-line monitoring procedure was performed as followed:
The same assay procedure was used to detect cadmium in soil samples. The soil was added directly to the screen-printed based electrochemical cells containing the bacteria culture as described above. Eight soil samples were monitored simultaneously by the system. The results as visualized on the computer screen are shown on FIG. 6A., Two duplicates of soil sample containing 3.8 PPM cadmium (measured by the Atomic absorption method) were compared with two duplicates of clean soil samples.

[4] = test system: heavy metal responsive promoter-lacZ fusion in E coli K12 MC4100; assay: on-line amperometric monitoring of heavy metals with bacteria carrying heavy metal responsive promoter fused to lacZ; type: cell-based; conditions: CdCl2 5, 10 and 50 PPM added to culture, FIG. 5
Description: An on-line electroanlytical assays for β-galactosidase was used to monitor on-line the presence of heavy metals. The expression of the reporter gene β-galactosidase that was fused to a heavy metal responsive gene was proportional to the heavy metal concentration. We were able to monitor eight different samples simultaneously using a disposable electrodes.
as §1
a. The bacteria culture was grown on LB medium to a density of 40 K.U.
b. The culture was added to the multiple-cell device followed by the addition of the β-galactosidase substrate p-aminophenyl-b-D-galactopyranoside (PAPG).
c. A potential of 220 mV Vs Ag/AgCl reference electrode was applied by the electrochemical measurement system and electroanalytical assay for β-galactosidase was carried out as described in Example 4.
The current signal was monitored simultaneously in all the cultures.

[5] = test system: heavy metal responsive promoter-lacZ fusion in E coli K12 MC4100; conditions: HgCl2 10, 50, 100 and 500 PPM added to sea-water, FIG. 7
Description: Electrochemical measurements was performed using a disposable three-electrode cell made of polystyrene tubes and based on a screen-printed electrode (total volume of 0.3 ml). The assay was performed directly in the electrochemical cells that was vibrated to achieve mixing. This system allows simultaneous measurements of eight samples using a potentiostat connected to 8 channel multiplexer. The electrical current, resulting in all 8 cultures, from the activity of β-galactosidase, was visualized in real time on the computer screen. The on-line monitoring procedure was performed as followed:
The game procedure as described on Example 4 was used to monitor mercury in water and sea water samples.

β-galactosidase = β-galactosidase (Escherichia coli, UniProt P00722); conditions: purified enzyme, PAPG substrate, 220 mV
β-galactosidase, sequence (P00722 2-1024 limits assumed): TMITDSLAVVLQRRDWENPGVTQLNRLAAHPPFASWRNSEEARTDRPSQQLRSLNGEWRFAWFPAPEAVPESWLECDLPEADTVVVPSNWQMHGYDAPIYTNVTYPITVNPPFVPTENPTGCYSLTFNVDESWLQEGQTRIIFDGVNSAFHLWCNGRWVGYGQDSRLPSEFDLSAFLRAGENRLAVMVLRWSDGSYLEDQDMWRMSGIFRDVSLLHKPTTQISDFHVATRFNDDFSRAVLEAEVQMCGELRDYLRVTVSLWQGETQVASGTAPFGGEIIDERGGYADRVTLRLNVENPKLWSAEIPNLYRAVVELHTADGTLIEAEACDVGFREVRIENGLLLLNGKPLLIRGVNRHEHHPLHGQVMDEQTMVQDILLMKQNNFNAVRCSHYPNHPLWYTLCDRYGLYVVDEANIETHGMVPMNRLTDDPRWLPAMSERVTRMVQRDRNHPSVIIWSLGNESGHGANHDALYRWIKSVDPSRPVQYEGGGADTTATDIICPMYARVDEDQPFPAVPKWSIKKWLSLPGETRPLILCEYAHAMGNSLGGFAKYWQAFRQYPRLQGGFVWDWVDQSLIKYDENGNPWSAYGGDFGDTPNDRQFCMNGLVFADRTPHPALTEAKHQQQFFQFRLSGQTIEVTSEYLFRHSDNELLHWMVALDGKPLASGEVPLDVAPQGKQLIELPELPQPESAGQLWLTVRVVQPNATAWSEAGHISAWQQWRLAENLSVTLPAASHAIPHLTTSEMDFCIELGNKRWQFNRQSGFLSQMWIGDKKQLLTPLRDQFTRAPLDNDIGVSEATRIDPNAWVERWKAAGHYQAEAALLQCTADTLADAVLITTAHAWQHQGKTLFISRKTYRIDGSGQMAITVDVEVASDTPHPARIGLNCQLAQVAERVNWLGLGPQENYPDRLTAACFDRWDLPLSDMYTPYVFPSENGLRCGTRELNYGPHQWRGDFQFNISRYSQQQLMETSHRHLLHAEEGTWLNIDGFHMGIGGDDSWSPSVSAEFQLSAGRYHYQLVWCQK
Description: The amperometric assay. Electrochemical measurements were performed using a disposable three-electrode cell, based on a screen-printed electrode (total volume of 0.3 ml). […] Graphite ink was used as the counter electrode and Ag/AgCl ink were the reference electrodes. Disposable graphite electrodes in cylindrical form (made from pencil leads, HB 0.9 mm) were used as the working electrodes. The assay was performed directly in the electrochemical cells which were vibrated to achieve mixing. The same screen-printed electrodes and graphite working electrode were also used for direct measurements in cultures. In this case the electrodes were placed inside the Erlenmeyer flask as shown in FIG. 1 and mixing was achieved by bubbling air. The graphite electrode was held at 220 mV versus the reference electrode and the substrate PAPG concentration was 0.4 mg/ml.
The electrochemical measurements were performed using a PAR VersaStat potentiostat connected to 8 channel PAR 314 Model multiplexer (EG&C Princeton Applied Research, Princeton, N.J.). This system allows simultaneous measurements of eight samples with disposable electrochemical cells. The measurements were controlled by a LAbVIEW-based software using a Windows 95 operating system. […]

## CC(C)S[C@@H]1O[C@H](CO)[C@H](O)[C@H](O)[C@H]1O [IPTG, isopropyl-β-D-thiogalactopyranoside]
[1]; E. coli K10, FIG. 3B
  lowest IPTG concentration from which the slope was proportional: ≥ 0.5 µM
[1]; E. coli K10, IPTG 0.5-50 μM, FIG. 3B
  slope of the current signals with time (β-galactosidase induction): proportional to the concentrations of IPTG added
[2]
  current signals (alkaline phosphatase activity after induction): proportional to IPTG concentations

## [Cl][Cd][Cl] [cadmium, CdCl2]
[3]; soil sample containing 3.8 PPM cadmium, FIG. 6
  current signals versus clean soil samples: substantially higher
[3]; soil samples, average of several experiments, FIG. 6B
  lowest cadmium concentration detected in soil samples: 0.5 PPM
[4]
  slope of the current signals with time (reporter induction): proportional to the concentrations of cadmium added

## HgCl2
[5]
  current signal (reporter induction): proportional to the mercury concentrations

## β-D-galactoside galatohydrolase; EC 3.2.1.23 [β-galactosidase]
β-galactosidase
  detection limit: 1 unit/ml
